Source: patent US20260027073A1, “USE OF SMALL-MOLECULE COMPOUND HAVING NAPHTHYLAMINE STRUCTURE” (HANGZHOU PHECDAMED CO., LTD., priority 2023, published 2026)

Legend:
[1] = system: CUMS animal model of depression; assay: CUMS depression model behavioral tests; format: in vivo, C57BL/6J mice; conditions: Fluoxetine 30 mg/kg
Source text: Depression, also known as depressive disorder, is characterized by significant and long-lasting depressed state of mind as the main clinical feature. The CUMS animal model of depression is a chronic unpredictable animal stress model, which simulates part of the stressor, the external material environmental stimulus, and will cause dysfunctions in the animal organism through different stress stimuli, leading to occurrence of the psychiatric disease depression. […] During this period, carefully observing the status of each mouse. • (6) Basket shaking: Placing the mice in an empty basket and shaking the basket drastically, with the criterion that the mice in the basket are unable to stand firm and sway with the shaking of the basket, for 1 hour. • (7) Olfactory stimulation: Placing anise and other spices in the mice's baskets as a means of olfactory stimulation.
The above seven experiments were conducted randomly during a week as a way to achieve unpredictability with 4 weeks of continuous stimulation.
At the end of the modeling, an open field test experiment was conducted to screen the modeled animals and group the successful modeled animals into five groups: normal group (Control), model control group (Model), positive drug treatment group (Fluoxetine), TJ0113 10 mg/kg treatment group (10 mg/kg), […], TJ0113 30 mg/kg treatment group (30 mg/kg). There were 10 mice in each group, and the administration treatment was administered by gavage, the normal and model control groups were given vehicle treatment, the vehicle was 0.5% CMC-Na, the positive drug fluoxetine hydrochloride was solubilized in saline and administered at a dose of 30 mg/kg, and the TJ0113 vehicle was 0.5% CMC-Na, and administered at a dose of 10 mg/kg and 30 mg/kg, respectively. 4 weeks after the end of the administration, behavioral tests were performed.
• (1) Adaptive feeding: Adaptive feeding with 1% sucrose water and plain water for 2 d before the start of the test, at 1 d, interchanging the sugar water and plain water to avoid positional differences for the animals, and fasting food and water for 1 d after adaption; • (2) Formal test: after fasting food and water, 1% sucrose water and plain water were given to the animals (the initial mass of sugar water and plain water is known), and weighing the remaining mass of sugar water/plain water of each animal after 24 h, and calculating the consumption rates of sugar water A and plain water B; • (3) Data analysis: sugar water preference rate=(A/A+B)×100%.
• (1) adapting to the environment: placing the animals in the test environment for 60 min to adapt to the environment before the test; • (2) Formal test: fixing the rear 1/3 of the mouse tail with tape and suspending on the stand of the experimental apparatus, with the head 15 cm from the bottom; • (3) starting timing camera, and stopping after 6 min, and recording the immobility time of the mice within 4 min; • (4) At the end of the test, using 75% alcohol to wipe the bottom and inner wall of the chamber.
• (1) adapting to the environment: placing the animals in the test environment for 60 min to adapt to the environment before the test; • (2) Formal test: placing the animals to be tested in the middle of the open field, and using the ANY-Maze software to collect the data, the test time is 10 min, and the feces and urine must be removed at the end of each round and disinfected and wiped dry with 75% alcohol; • (3) Analysis of results: total moved distance and average speed during the activity, time spent in the center area and time spent in the corner area.

[2] = system: LPS-induced acute lung injury mice; assay: LPS-induced acute lung injury; format: in vivo, C57BL/6J mice
Protocol: Male mice C57BL/6J aged 6-8 weeks and weighing 18-22 g were selected for the study. After fixing the mice, 50 μl of PBS was injected into the airways of the mice under direct laryngoscopic vision to form a control group, and 5 mg/kg of LPS (E.coil) was dissolved in 50 μl of PBS and dripped to form a model group. The experiments were divided into […], each having 6 mice, namely, NS group (control group, airway drip of 50 μl PBS), LPS group (model control group, airway drip of 50 μl LPS), LPS+10 mg/kg group (airway drip of 50 μl LPS and given 10 mg/kg TJ01-013 treatment), LPS+20 mg/kg group (airway drip of 50 μl LPS and given 20 mg/kg TJ01-013 treatment), LPS+30 mg/kg group (airway drip of 50 μl LPS and given 30 mg/kg TJ01-013 treatment), LPS+Sivelestat group (Positive control group, airway drip of 50 μl LPS and given 5 mg/kg Sivelestat treatment). All groups were administered […] by intraperitoneal injection in a volume of 200 μl 1 h and 7 h after airway drip, and the mice were euthanized 24 h later, bronchoalveolar lavage fluid (BALF) was taken, and the levels of inflammatory factors in the bronchoalveolar lavage fluid were detected and the changes in the transcriptional levels of tissue-associated inflammatory factors were observed. • (2) taking and observing of Bronchoalveolar lavage fluid (BALF)
Use chloral hydrate intraperitoneal injection to make mice die of rapid overdose anesthesia, place mice in supine position on the dissection table, fix the limbs, disinfect the skin of the neck of the mice with 75% ethanol, incise the skin along the midline of the neck, bluntly separate the subcutaneous connective tissues and muscles with hemostatic forceps, expose the trachea, separate connective tissues on both sides of the trachea and between the trachea and the esophagus, and free the trachea. Two surgical sutures about 20 cm long were threaded between the trachea and esophagus. A 24G intravenous cannula needle was inserted at a 30-degree angle from the connective tissue membrane between the thyroid cartilage and the cricoid cartilage, and the intravenous cannula needle was delivered in the direction of the tracheal eminence. A surgical suture placed between the tracheo-esophageal was ligated at the entry of the cannula into the trachea and at the distal end of the cannula, respectively, and tied as tightly as possible to secure the cannula and trachea. 0.8 ml of PBS was aspirated with a 1 ml syringe, and the syringe was connected to the inlet end of the intravenous cannula needle, and PBS was slowly injected into the trachea, stayed for 30 seconds and then was withdrawn back, and a milky white frothy liquid withdrawn back was visible, and the lavage was repeated three times, and the liquid was centrifuged at 1500 rpm/min for 10 min, and the supernatant was used for cytokine assay, and the cell precipitates were coated after resuspending with PBS for Giemsa staining and sorting and counting.
The levels of inflammatory factors (inflammatory factors including IL-6, CXCL1, CXCL2, etc.) in BALF supernatant were detected according to the instructions of the ELISA test kit.
The obtained cDNA was amplified on a 96-well PCR plate using a LightCycler 480 system, and the gene level was determined by using glyceraldehyde 3-phosphate dehydrogenase (GAPDH) as an internal standard.

[3] = TJ01-013 10, 20, 30 mg/kg, Sivelestat 5 mg/kg, FIG. 26
[4] = concentration-dependent for TJ01-013, FIG. 27

`O=C(O)C[S+]([O-])c1cc(NS(=O)(=O)c2ccc(Br)cc2)c2ccccc2c1O` (stereo not drawn) [I-1] was tested, and the “average movement speed, open field” value ([1]; TJ0113 10 mg/kg and 30 mg/kg, FIG. 61) was “significantly increased”, the sugar water preference ([1]; TJ0113 30 mg/kg, gavage, FIG. 57) was “significantly increased” and the “time in despair (immobility), tail-hanging experiment” value ([1]; TJ0113 30 mg/kg, FIG. 58) was “significantly decreased”. For the same compound, the “distance moved, open field” value ([1]; TJ0113 30 mg/kg, FIG. 59) was “significantly increased”, the “time in the edge area of the open field” value ([1]; TJ0113 30 mg/kg, FIG. 60) was “significantly decreased” and the “number of macrophages in alveolar lavage fluid” value ([2]; FIG. 25) was “no significant effect”. For the same compound, the “number of neutrophils in alveolar lavage fluid” value ([2]; FIG. 25) was “significantly reduce”, the “total number of cells in alveolar lavage fluid, compared with positive control Sivelestat sodium” value ([2]; TJ01-013 20 mg/kg, FIG. 25) was “decreased to a better extent” and the “CXCL1 level in alveolar lavage fluid (ELISA)” value [2, 3] was “significantly decreased in a concentration-dependent manner”. For the same compound, the “CXCL2 level in alveolar lavage fluid (ELISA)” value [2, 3] was “significantly decreased in a concentration-dependent manner”, the “IL-6 level in alveolar lavage fluid (ELISA)” value [2, 3] was “significantly decreased in a concentration-dependent manner” and the “total number of cells in alveolar lavage fluid” value ([2]; after LPS, intraperitoneal TJ01-013, FIG. 25) was “decreased”. The “CXCL1 transcript level in lung tissue” value [2, 4] was “significantly decreased”, the “CXCL2 transcript level in lung tissue” value [2, 4] was “significantly decreased” and the “IL-6 transcript level in lung tissue” value [2, 4] was “significantly decreased”.
